Molecules are shown by their SMILES.

Here are results for three compounds from PMC6972920, “Structure-based development of caged dopamine D2/D3 receptor antagonists” (Scientific Reports, 2020).

Assay [1] concerns the target T1, human dopamine receptor subtype D4.4 (Homo sapiens, UniProt P21917).
T1 sequence (P21917 1-419): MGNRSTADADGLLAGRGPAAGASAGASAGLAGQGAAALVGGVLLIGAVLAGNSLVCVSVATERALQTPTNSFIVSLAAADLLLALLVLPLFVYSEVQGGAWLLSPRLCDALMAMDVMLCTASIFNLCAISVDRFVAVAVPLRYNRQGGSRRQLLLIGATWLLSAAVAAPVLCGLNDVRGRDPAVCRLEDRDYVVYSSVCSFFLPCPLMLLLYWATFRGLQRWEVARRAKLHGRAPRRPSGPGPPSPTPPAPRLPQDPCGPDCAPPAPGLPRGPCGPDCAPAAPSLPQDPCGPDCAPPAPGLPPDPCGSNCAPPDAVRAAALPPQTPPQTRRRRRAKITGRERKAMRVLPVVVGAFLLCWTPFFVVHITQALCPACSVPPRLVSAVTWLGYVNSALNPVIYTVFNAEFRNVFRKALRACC
Briefly: Radioligand displacement, [3H]spiperone, CHO cell membranes. The format is binding. The note with it: [3H]spiperone; mean ± SEM of 4-9 experiments; compounds 1, 2, 3: ± SD of two experiments; read-out: Ki value D4.4.

For assay [2], the target named is T2, human dopamine D5 receptor (Homo sapiens, UniProt P21918).
T2 construct: expressed in transfected cells; host or cells: HEK293T cells, transient transfection
Briefly: Competition binding, [3H]SCH23390, HEK293T membranes.

Assay [3] addresses T3, human dopamine D1 receptor (Homo sapiens, UniProt P21728).
T3 construct: expressed in transfected cells; host or cells: HEK293T cells, transient transfection
Described as above. The note with it: read-out: Ki value D1.

In assay [4] the target is T4, human serotonin 5-HT1A receptor (Homo sapiens, UniProt P08908).
T4 construct: expressed in transfected cells; host or cells: HEK293T cells, transient transfection
T4 sequence (P08908 1-422): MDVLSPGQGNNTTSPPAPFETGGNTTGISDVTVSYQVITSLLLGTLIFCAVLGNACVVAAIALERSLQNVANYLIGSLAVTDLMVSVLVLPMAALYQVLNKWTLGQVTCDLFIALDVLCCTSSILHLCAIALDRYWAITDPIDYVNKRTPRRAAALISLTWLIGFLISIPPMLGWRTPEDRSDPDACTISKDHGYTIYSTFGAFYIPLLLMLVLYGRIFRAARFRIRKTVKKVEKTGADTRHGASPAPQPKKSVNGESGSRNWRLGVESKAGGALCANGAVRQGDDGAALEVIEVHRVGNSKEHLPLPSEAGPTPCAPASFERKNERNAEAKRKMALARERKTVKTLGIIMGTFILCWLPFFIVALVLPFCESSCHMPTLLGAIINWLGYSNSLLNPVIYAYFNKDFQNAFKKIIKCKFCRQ
Briefly: Competition binding, [3H]WAY600135, HEK293T membranes. The note with it: ± SD of two experiments.

Assay [5] deals with T5, human adrenergic α2A receptor (Homo sapiens, UniProt P08913).
T5 construct: expressed in transfected cells; host or cells: HEK293T cells, transient transfection
T5 sequence (P08913 1-465): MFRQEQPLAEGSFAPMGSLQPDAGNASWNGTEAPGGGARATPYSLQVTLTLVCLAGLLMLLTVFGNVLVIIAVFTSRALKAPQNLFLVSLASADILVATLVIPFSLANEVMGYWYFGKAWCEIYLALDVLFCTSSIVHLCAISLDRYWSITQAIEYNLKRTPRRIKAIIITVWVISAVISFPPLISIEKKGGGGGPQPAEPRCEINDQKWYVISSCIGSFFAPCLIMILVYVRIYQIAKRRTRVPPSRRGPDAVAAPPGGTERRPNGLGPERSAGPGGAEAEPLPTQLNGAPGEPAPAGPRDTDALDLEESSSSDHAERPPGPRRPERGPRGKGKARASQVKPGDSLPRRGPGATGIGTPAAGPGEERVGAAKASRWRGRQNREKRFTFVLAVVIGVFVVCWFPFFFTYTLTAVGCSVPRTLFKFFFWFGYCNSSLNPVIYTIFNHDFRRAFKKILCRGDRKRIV
Briefly: Competition binding, [3H]RX821002, HEK293T membranes. The note with it: [3H]RX821002; ± SD of two experiments.

Assay [6] relates to D2 and D3 receptors. Briefly: Radioligand binding, summary over D2 and D3 subtypes. Set-up: species or system human.
For assay [7], the target named is T6, human serotonin 5-HT2A receptor (Homo sapiens, UniProt P28223).
T6 construct: expressed in transfected cells; host or cells: HEK293T cells, transient transfection
Briefly: Competition binding, [3H]ketanserin, HEK293T membranes. The note with it: ± SD of two experiments.

Assay [8] has as its target T7, human adrenergic β2 receptor (Homo sapiens, UniProt P07550).
T7 construct: expressed in transfected cells; host or cells: HEK293T cells, transient transfection
Briefly: Competition binding, [3H]CGP12177, HEK293T membranes. The following applies: ± SD of two experiments.

Assay [9] deals with T8, human adrenergic α1A receptor (Homo sapiens, UniProt P35348).
T8 construct: expressed in transfected cells; host or cells: HEK293T cells, transient transfection
T8 sequence (P35348 1-466): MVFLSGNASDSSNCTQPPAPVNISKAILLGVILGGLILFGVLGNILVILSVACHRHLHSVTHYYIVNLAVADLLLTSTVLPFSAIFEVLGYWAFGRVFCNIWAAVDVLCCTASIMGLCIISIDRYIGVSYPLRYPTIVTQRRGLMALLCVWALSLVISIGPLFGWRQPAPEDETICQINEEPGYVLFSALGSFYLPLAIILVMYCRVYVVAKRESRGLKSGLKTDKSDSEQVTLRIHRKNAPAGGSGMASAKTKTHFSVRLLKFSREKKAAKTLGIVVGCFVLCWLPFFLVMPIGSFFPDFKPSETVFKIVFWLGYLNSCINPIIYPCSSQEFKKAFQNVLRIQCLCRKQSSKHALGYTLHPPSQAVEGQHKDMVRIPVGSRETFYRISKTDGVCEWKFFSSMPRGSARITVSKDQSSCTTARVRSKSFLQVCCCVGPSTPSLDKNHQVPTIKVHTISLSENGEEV
Briefly: Competition binding, [3H]prazosin, HEK293T membranes. The following applies: ± SD of two experiments.

T2 sequence (P21918 whole entry): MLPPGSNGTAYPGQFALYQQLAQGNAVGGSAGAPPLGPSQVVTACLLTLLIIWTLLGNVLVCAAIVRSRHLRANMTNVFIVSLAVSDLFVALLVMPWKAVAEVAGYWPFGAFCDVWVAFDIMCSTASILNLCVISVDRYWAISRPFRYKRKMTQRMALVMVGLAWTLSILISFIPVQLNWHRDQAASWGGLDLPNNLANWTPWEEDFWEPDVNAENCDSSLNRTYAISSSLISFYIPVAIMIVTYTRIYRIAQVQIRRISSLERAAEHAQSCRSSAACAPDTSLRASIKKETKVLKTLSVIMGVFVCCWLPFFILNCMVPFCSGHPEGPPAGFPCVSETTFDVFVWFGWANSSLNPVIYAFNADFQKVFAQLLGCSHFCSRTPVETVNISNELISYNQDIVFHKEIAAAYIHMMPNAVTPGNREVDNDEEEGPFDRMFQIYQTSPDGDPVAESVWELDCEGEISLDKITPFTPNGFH
T6 sequence (P28223 whole entry): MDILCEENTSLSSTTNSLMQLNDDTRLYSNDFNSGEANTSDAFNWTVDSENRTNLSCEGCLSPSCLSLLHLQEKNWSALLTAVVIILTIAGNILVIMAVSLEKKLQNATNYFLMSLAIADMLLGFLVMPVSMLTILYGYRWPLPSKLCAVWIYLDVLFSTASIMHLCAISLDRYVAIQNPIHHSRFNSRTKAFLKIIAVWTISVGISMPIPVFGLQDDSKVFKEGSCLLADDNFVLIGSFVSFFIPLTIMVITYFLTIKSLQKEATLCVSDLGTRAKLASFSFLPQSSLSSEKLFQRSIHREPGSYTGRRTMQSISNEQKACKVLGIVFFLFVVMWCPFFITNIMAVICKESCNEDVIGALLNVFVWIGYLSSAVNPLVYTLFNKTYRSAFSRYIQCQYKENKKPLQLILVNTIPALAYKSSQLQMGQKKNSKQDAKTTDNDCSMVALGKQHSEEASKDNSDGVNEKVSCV
T7 sequence (P07550 whole entry): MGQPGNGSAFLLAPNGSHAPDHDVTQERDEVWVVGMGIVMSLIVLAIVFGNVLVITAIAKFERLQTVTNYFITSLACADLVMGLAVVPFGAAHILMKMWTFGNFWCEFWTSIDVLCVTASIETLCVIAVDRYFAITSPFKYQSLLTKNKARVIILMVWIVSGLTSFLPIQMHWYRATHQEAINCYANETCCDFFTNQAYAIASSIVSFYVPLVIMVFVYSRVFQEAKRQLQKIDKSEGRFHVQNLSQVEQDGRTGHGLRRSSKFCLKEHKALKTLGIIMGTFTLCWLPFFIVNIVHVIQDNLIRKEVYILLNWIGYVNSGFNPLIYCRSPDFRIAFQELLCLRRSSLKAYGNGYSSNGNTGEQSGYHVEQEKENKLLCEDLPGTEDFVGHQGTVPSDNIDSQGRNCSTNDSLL
T3 sequence (P21728 whole entry): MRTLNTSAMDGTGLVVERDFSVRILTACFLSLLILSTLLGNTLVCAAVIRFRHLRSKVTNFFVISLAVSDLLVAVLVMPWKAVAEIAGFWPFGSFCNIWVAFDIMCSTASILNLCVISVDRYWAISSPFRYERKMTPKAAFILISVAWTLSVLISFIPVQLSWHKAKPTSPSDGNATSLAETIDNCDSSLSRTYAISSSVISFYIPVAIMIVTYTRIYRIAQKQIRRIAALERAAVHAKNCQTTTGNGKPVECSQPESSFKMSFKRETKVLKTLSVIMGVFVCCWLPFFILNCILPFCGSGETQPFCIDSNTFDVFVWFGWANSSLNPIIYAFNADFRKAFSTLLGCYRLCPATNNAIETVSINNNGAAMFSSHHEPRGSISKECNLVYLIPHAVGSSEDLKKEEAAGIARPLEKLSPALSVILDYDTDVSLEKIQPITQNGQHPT

Turning to `CCc1ccc(OC)c(C(=O)NC[C@@H]2CCCN2CC)c1OCc1ccccc1[N+](=O)[O-]` [compound 4, (S)-3-Ethyl-N-[(1-ethylpyrrolidin-2-yl)methyl]-6-methoxy-2-[(2-nitrobenzyl)oxy]benzamide], the Ki in [1] worked out at 2800 ± 180 nM.

In the case of `CCc1ccc(OC)c(C(=O)NC[C@@H]2CCCN2CC)c1OCc1cc(OC)c(OC)cc1[N+](=O)[O-]` [compound 5], in assay [1], the Ki came to 25000 ± 3300 nM.

As for `CCc1ccc(OC)c(C(=O)NC[C@@H]2CCCN2CC)c1O` [dechloroeticlopride, (S)-3-Ethyl-N-[(1-ethylpyrrolidin-2-yl)methyl]-2-hydroxy-6-methoxybenzamide, reference compound], the inhibition constant (Ki) in assay [2] was 49000 ± 17000 nM; in assay [3], 11000 ± 3600 nM; in assay [4], 1800 ± 420 nM; in assay [5], 100 ± 36 nM; in [6] (range over D2L, D2S, D3, stated in text) it was 1.2 to 2.4 nM; in assay [7], 270 ± 28 nM. For the same compound, the inhibition constant (Ki) in assay [8] was found to be 8900 ± 3000 nM; in [9] it was 880 ± 150 nM. Besides, in assay [6] (at D2S and D3, radioligand displacement curves), the “difference in affinity, uncaged dechloroeticlopride over 4, 5 and 6” value was “more than 100 fold”.
